According to article PMC8116058, “De novo macrocyclic peptides dissect energy coupling of a heterodimeric ABC transporter by multimode allosteric inhibition” (eLife, 2021):
Positions of bridges follow the written chain, without caps; N, C: chain ends. Non-standard residues stand in square brackets, D forms with d. Residues, ends and D or L forms follow the SMILES beside them. *: point of attachment. 5FAM = O=C1OC2(c3ccc(O)cc3Oc3cc(O)ccc32)c2ccc(C(=O)*)cc21; βAla = NCCC(=O)O

Molecular target: outward-facing TmrA^EQB trapped with Mg-ATP (Thermus thermophilus, UniProt Q72J04+Q72J05, E523Q)
Experiment: Conformation-specific binding by fluorescence anisotropy, OF conformer
Conditions: fluorescence polarization, IF TmrAB vs ATP-trapped OF TmrA^EQB
Source text: ABC transport complexes such as TmrAB run through multiple conformational states along the ATP hydrolysis cycle to drive unidirectional substrate transport ([Hofmann et al., 2019]; [Stefan et al., 2020]). Within the substrate translocation cycle, two major conformers, inward-facing (IF) and outward-facing (OF), were identified. To investigate whether CPs favor one of these conformers, we probed the binding of CP^Fs by fluorescence polarization analysis. […] In the latter case, the interaction studies were performed immediately after the IF-to-OF switch by incubation with ATP for 5 min at 45°C. To exclude an OF-to-IF return (τ1/2 of 25 min) ([Stefan et al., 2020]), the fluorescence anisotropy was recorded only within the first minute of incubation.
Figure 5. […] Immediately after, the fluorescence anisotropy was assayed at λex/em = 485/520 nm. The difference in fluorescence polarization was normalized to free and fully bound CP^F. Data were fitted by a one-site binding model. […] Occluded nucleotides were analyzed by thin layer chromatography and autoradiography. […] (D) Stably occluded nucleotides, [α^32P]-ATP and [α^32P]-ADP, were quantified by autoradiography. […] The difference in fluorescence polarization was normalized to unbound (0%) and 100% bound CP^F. Data were fitted by a one-site binding model. Fluorescence anisotropy was recorded at λex/em = 485/520 nm. […]

Structure (SMILES) | Conformational preference of binding, IF vs OF
CC[C@H](C)[C@@H]1NC(=O)[C@H](Cc2c[nH]c3ccccc23)NC(=O)[C@H](CC(N)=O)NC(=O)[C@H](C)NC(=O)[C@H](CO)NC(=O)[C@@H]2CCCN2C(=O)[C@H](CC(=O)O)NC(=O)[C@@H](Cc2ccc(O)cc2)NC(=O)CSC[C@@H](C(=O)NCC(=O)N[C@@H](CO)C(=O)NCCC(=O)NCCC(=O)N[C@@H](CCCNC(=N)N)C(=O)N[C@@H](CCCCNC(=O)c2ccc3c(c2)C(=O)OC32c3ccc(O)cc3Oc3cc(O)ccc32)C(N)=O)NC(=O)[C@H]([C@@H](C)O)NC(=O)[C@H](CC(C)C)NC(=O)[C@H](CC(C)C)NC(=O)[C@H](C(C)C)NC(=O)[C@H](CC(C)C)NC1=O [CP13] ({CH2CO}-[dY]DPSANWILVLLTCGS[βAla][βAla]RK(5FAM)-NH2; thioether N-14; C-terminus assumed) | preference for the OF conformer
CC(C)[C@@H]1NC(=O)[C@H](Cc2ccccc2)NC(=O)[C@@H]2CCCN2C(=O)[C@H](CC(N)=O)NC(=O)[C@H](Cc2c[nH]c3ccccc23)NC(=O)[C@H](C(C)C)NC(=O)[C@H](Cc2ccc(O)cc2)NC(=O)[C@H](Cc2ccccc2)NC(=O)[C@@H](Cc2ccc(O)cc2)NC(=O)CSC[C@@H](C(=O)NCC(=O)N[C@@H](CO)C(=O)NCCC(=O)NCCC(=O)N[C@@H](CCCNC(=N)N)C(=O)N[C@@H](CCCCNC(=O)c2ccc3c(c2)C(=O)OC32c3ccc(O)cc3Oc3cc(O)ccc32)C(N)=O)NC(=O)[C@H](CCCCN)NC(=O)[C@H](Cc2ccccc2)NC1=O [CP14] ({CH2CO}-[dY]FYVWNPFVFKCGS[βAla][βAla]RK(5FAM)-NH2; thioether N-12; C-terminus assumed) | preference for the OF conformer
